From patent EP4722203A1, “3,4-DIHYDROPHTHALAZIN-1(2H)-ONE DERIVATIVE, AND PREPARATION METHOD THEREFOR AND USE THEREOF” (Academy of Military Medical Sciences, priority 2023, dated 2024)

How the values were obtained:
[1] = system: human multiple myeloma NCI-H929 xenograft tumors; experiment: In vivo antitumor activity against NCI-H929 transplanted tumors; design: species or system NOD/SCID mice; details: QD; for growth of NCI-H929 transplanted tumors (in words): 3 mg/kg and 10 mg/kg; for Tumor inhibition rate TGI (%) / Average volume (mm^3) (Day 10) / Initial volume (mm^3): oral gavage; for Tumor inhibition rate TGI (%): 10 consecutive days; for Initial volume (mm^3): baseline
Protocol: In this example, the human multiple myeloma NCI-H929 cell line was used as the cell model. The inhibitory effects of compounds on the growth of NOD/SCID mouse transplanted tumors of NCI-H929 tumor cells were determined. The evaluation methods and results are described below.
(§1) Human multiple myeloma NCI-H929 cells were routinely cultured in RPMI1640 containing 10% fetal bovine serum at 37°C in a 5% CO2 incubator. After three passages in vitro, when the cells reached over 80% confluence and the required confluence rate, the cells were digested and harvested. After washing with PBS, the cells were counted and the cell concentration was adjusted to approximately 5 × 10^7 cells/mL. The cells were then placed in 4 mL centrifuge tubes on ice for later use.
(§2) Female NOD/SCID mice aged 4-5 weeks were selected and subcutaneously inoculated with NCI-H929 cells ectopically. The mice were held in a lateral position, the forelimb axilla was disinfected with 75% alcohol, and 100 µL of the cell suspension was injected subcutaneously into the axilla using a 1 mL syringe ([…]/100 µL).
After the tumors grew to 90-150 mm^3, the animals were randomly divided into groups, 8 mice in each group, and administered according to different administration methods as follows: • Model control group: Administered with the same volume of Vehicle (DMSO: 0.5% sodium carboxymethyl cellulose: distilled water = 1:1:8) daily by gavage; • Control drug group 1: administered with pomalidomide solution at 10 mg/kg (mouse body weight) daily by gavage; • Control drug group 2: administered with CC-220 solution at 3 mg/kg (mouse body weight) daily by gavage; • Control drug group 3: administered with CC-220 solution at 10 mg/kg (mouse body weight) daily by gavage; • Experimental compound group 4: administered with compound I-4 solution at 3 mg/kg (mouse body weight) daily by gavage; • Experimental compound group 5: administered with compound I-4 solution at 10 mg/kg (mouse body weight) daily by gavage; • Experimental compound group 6: administered with compound I-8 solution at 3 mg/kg (mouse body weight) daily by gavage; • Experimental compound group 7: administered with compound I-8 solution at 10 mg/kg (mouse body weight) daily by gavage;
(§3) The route of administration was oral gavage, and the administration frequency was once daily, for 10 consecutive days. The first day of administration was defined as Day 1 of the experiment. Tumor volume changes in mice were measured and recorded every two days. Tumor volume was measured using a vernier caliper, in which the major axis (a) and minor axis (b) of the tumor were measured, and the tumor volume was calculated as tumor volume V (mm^3) = a x b^2/2. After the experiment, the mice were dissected and the tumor weight was measured. The data were entered and statistically analyzed using GraphPad Prism 6 software. The data are expressed as mean ± SEM (Standard Error of Mean), and one-way ANOVA was used. P ≤ 0.05 was considered statistically significant.

[2] = system: RPMI-8226-Lenalidomide-R cells; experiment: Antiproliferative activity against resistant cells, CCK-8 assay; type: cell-based; details: Homo sapiens, 144 hours incubation
Protocol: In this example, lenalidomide-resistant human multiple myeloma cells, including NCI-H929 (NCI-H929-Lenalidomide-R) and RPMI-8226 (RPMI-8226-Lenalidomide-R), and pomalidomide-resistant human multiple myeloma cells, including NCI-H929 (NCI-H929-pomalidomide-R) and RPMI-8226 (RPMI-8226-pomalidomide-R), were selected as cell models to determine the inhibitory activity of compound I-8 of the present invention against the proliferation of the resistant cells.
• ① I-8 was dissolved in DMSO to prepare a 10 mM stock solution. Compounds used within three months should be stored at room temperature in a desiccator; others could be stored at -20°C for long-term storage. • ② The I-8 stock solution and the reference compounds lenalidomide and pomalidomide were all diluted with DMSO. Their initial concentrations were 10 µM. In the experiments of lenalidomide-resistant human multiple myeloma cells (NCI-H929 (NCI-H929-Lenalidomide-R) and RPMI-8226 (RPMI-8226-Lenalidomide-R) and pomalidomide-resistant human multiple myeloma cells (NCI-H929 (NCI-H929-pomalidomide-R) and RPMI-8226 (RPMI-8226-pomalidomide-R), 3-fold serial dilution with 11 concentration points was performed, with the lowest concentration of […]. The resulting solutions were shaken on a shaker for 5 minutes.
• ① The NCI-H929-Lenalidomide-R, RPMI-8226-Lenalidomide-R, NCI-H929-pomalidomide-R, and RPMI-8226-pomalidomide-R cells in logarithmic growth phase were inoculated in a 96-well plate, 20,000 to 30,000 cells per well, and the plate was pre-cultured for 24 hours in an incubator (at 37°C and 5% CO2). • ® The culture medium in the plate was replaced, and the compounds and the positive controls with corresponding concentrations were added to the plated at a volume of 50 µL. • ③ The plate was incubated for 144 hours in an incubator, then 15 µL of CCK-8 solution was added to each well, and the plate was incubated in the incubator for another 1-4 hours. • ④ The absorbance at 450 nm was measured using a microplate reader.
• ① Calculating % Inhibition: [formula] • ② Calculating IC50 value of compound and plotting dose-response curve: The IC50 value was calculated by fitting the % Inhibition and the logarithm of compound concentration to a nonlinear regression (dose response-variable slope) by using GraphPad 6.0. Y = Bottom + (Top−Bottom)/(1+10^(∧)((LogIC50−X)*HillSlope)) [formula] X: log of inhibitor concentration; Y: % Inhibition.
After calculating % Inhibition, a dose-response curve was plotted with the logarithm of the test compound concentration as the x-axis and the average cell viability as the y-axis, and the IC50 value was obtained by fitting.

[3] = system: human multiple myeloma NCI-H929 xenograft tumors; experiment: In vivo activity in combination with dexamethasone against NCI-H929 transplanted tumor; design: species or system NOD/SCID mice; details: each drug 3 mg/kg, QD; for Tumor inhibition rate TGI (%) / Average volume (mm^3) (Day 10) / Initial volume (mm^3): oral gavage, alone or combined; for Tumor inhibition rate TGI (%): 10 consecutive days; for Initial volume (mm^3): baseline
Protocol: In this example, human multiple myeloma NCI-H929 cell line was selected as the cell model to determine the inhibitory effects of compound and dexamethasone alone, as well as combination thereof on the growth of NOD/SCID mouse transplanted tumors of NCI-H929 tumor cells. The evaluation methods and results are described below.
as §1, §2
After the tumors grew to 90-150 mm^3, the animals were randomly divided into groups, 8 mice in each group, and administered according to different administration methods as follows: • Model control group: Administered with the same volume of Vehicle (DMSO: 0.5% sodium carboxymethyl cellulose: distilled water = 1:1:8) daily by gavage; • Test group 1: administered with dexamethasone (Dex) solution at 3 mg/kg (mouse body weight) daily by gavage; • Test group 2: administered with I-4 solution at 3 mg/kg (mouse body weight) daily by gavage; • Test group 3: administered with I-8 solution at 3 mg/kg (mouse body weight) daily by gavage; • Test group 4: administered with dexamethasone at 3 mg/kg (mouse body weight) and 1-4 solution at 3 mg/kg (mouse body weight) daily by gavage; • Test group 5: administered with dexamethasone at 3 mg/kg (mouse body weight) and I-8 solution at 3 mg/kg (mouse body weight) daily by gavage;
as §3

IC50 [2] | SMILES | growth of NCI-H929 transplanted tumors (in words) [1] | Tumor inhibition rate TGI (%) ([1]; 3 mg/kg) | Average volume (mm^3) (Day 10) ([1]; 3 mg/kg) | Initial volume (mm^3) ([1]; 3 mg/kg) | Tumor inhibition rate TGI (%) ([1]; 10 mg/kg) | Average volume (mm^3) (Day 10) ([1]; 10 mg/kg) | Initial volume (mm^3) ([1]; 10 mg/kg) | growth of NCI-H929 transplanted tumors (in words) [3] | Tumor inhibition rate TGI (%) [3] | Average volume (mm^3) (Day 10) [3] | Initial volume (mm^3) [3]
0.246 µM | CN1Cc2c(NCc3ccc(CN4CCN(c5ccc(C#N)c(F)c5)CC4)cc3)cccc2C(=O)N1C1CCC(=O)NC1=O (stereo not drawn) [I-8] | significantly inhibited the growth | 84.25% | 500.1 mm^3 | 193.5 mm^3 | 100.72% | 197.3 mm^3 | 211.3 mm^3 | effectively inhibit the growth | 82.64% | 458.1 mm^3 | 183.3 mm^3
– | CN1Cc2c(N)cccc2C(=O)N1C1CCC(=O)NC1=O (stereo not drawn) [I-4, 3-(5-amino-3-methyl-1-oxo-3,4-dihydrophthalazin-2(1H)-yl)piperidin-2,6-dione] | significantly inhibited the growth | 66.53% | 843.1 mm^3 | 191.6 mm^3 | 92.82% | 344.5 mm^3 | 204.8 mm^3 | effectively inhibit the growth | 68.03% | 689.9 mm^3 | 183.9 mm^3
> 100 µM | Nc1cccc2c1C(=O)N(C1CCC(=O)NC1=O)C2=O (stereo not drawn) [Pomalidomide, reference compound] | – | – | – | – | 80.09% | 573.1 mm^3 | 185.6 mm^3 | – | – | – | –
